Tests used:
[1] = molecular target: Kappa-type opioid receptor (Homo sapiens, UniProt P41145); experiment: DRUGMATRIX: Opiate kappa (OP2, KOP) radioligand binding (ligand: [3H] Diprenorphine); format: cell membranes, HEK293, Membrane; settings: hek293; Not Active = under 50% inhibition at 10 µM
[2] = molecular target: 5-hydroxytryptamine receptor 4 (Cavia porcellus, UniProt O70528); format: cell membranes, Dunkin-Hartley, Striatum, Membrane; note: in other assays of this panel Not Active means under 50% inhibition at 10 µM
[3] = molecular target: T1, Polyunsaturated fatty acid lipoxygenase ALOX15 (Oryctolagus cuniculus, UniProt P12530); experiment: biochemical; format: tissue-based, Reticulocytes; settings: reticulocytes;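 note: inhibition of 15-lipoxygenase enzyme activity measured with linoleic acid as the substrate; in other assays of this panel Not Active means under 50% inhibition at 10 µM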
T1 sequence (P12530 whole entry): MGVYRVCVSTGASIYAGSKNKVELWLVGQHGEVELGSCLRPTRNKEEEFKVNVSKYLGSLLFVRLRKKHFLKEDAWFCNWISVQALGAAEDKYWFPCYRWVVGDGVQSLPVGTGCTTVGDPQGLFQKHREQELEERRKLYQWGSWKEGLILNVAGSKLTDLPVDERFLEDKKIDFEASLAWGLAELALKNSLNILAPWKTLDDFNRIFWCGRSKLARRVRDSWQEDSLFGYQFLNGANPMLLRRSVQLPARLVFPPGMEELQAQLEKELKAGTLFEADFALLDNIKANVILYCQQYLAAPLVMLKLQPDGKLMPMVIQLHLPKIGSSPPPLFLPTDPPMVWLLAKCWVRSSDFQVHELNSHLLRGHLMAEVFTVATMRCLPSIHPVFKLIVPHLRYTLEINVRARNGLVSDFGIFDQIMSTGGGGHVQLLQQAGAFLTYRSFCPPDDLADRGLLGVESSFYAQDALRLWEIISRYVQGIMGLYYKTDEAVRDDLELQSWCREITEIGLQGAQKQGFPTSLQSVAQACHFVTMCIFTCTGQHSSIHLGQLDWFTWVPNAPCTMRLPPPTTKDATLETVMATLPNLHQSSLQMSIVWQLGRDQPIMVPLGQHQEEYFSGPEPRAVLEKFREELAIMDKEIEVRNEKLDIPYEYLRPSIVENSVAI

[4] = molecular target: Epidermal growth factor receptor (Homo sapiens, UniProt P00533); experiment: DRUGMATRIX: Protein Tyrosine Kinase, EGF Receptor enzyme inhibition (substrate: Poly(Glu:Tyr)); format: cell-based, Insect cells; settings: insect cells; Not Active = under 50% inhibition at 10 µM
[5] = molecular target: Tyrosine-protein kinase Lck (Homo sapiens, UniProt P06239); experiment: DRUGMATRIX: Protein Tyrosine Kinase, LCK enzyme inhibition (substrate: Poly(Glu:Tyr)); format: cell-based, Insect cells; settings: insect cells; Not Active = under 50% inhibition at 10 µM

Measured: IC50

Chain of Epidermal growth factor receptor (P00533 whole entry): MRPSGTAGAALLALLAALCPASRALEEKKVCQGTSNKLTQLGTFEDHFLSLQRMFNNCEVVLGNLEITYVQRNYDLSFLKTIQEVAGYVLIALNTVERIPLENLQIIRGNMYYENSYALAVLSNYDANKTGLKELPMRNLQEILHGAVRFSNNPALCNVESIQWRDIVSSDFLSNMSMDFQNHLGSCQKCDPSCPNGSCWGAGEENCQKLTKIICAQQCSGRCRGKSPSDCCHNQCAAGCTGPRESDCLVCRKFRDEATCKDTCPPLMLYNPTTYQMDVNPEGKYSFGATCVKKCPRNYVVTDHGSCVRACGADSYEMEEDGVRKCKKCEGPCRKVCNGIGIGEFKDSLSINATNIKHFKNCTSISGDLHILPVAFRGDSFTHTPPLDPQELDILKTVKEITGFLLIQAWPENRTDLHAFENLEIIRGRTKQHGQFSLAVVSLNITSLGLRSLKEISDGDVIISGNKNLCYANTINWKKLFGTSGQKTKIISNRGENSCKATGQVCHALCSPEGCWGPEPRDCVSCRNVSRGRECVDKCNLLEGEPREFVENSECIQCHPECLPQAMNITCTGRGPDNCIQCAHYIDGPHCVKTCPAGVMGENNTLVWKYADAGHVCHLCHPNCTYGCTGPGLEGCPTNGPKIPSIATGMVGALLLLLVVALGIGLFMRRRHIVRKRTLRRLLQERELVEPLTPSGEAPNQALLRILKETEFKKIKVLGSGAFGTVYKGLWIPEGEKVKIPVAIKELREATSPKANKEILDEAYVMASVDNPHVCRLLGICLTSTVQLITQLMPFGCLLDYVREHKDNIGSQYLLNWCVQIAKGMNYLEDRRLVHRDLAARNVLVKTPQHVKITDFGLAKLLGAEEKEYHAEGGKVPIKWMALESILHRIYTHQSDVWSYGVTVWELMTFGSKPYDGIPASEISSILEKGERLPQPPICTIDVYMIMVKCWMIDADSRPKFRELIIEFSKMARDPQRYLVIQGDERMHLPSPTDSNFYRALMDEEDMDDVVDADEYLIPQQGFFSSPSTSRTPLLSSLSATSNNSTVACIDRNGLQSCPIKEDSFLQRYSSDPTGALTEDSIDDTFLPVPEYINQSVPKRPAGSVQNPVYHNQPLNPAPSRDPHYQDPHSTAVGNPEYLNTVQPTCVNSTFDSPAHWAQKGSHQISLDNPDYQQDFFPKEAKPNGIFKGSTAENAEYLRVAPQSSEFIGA
Chain of Tyrosine-protein kinase Lck (P06239 whole entry): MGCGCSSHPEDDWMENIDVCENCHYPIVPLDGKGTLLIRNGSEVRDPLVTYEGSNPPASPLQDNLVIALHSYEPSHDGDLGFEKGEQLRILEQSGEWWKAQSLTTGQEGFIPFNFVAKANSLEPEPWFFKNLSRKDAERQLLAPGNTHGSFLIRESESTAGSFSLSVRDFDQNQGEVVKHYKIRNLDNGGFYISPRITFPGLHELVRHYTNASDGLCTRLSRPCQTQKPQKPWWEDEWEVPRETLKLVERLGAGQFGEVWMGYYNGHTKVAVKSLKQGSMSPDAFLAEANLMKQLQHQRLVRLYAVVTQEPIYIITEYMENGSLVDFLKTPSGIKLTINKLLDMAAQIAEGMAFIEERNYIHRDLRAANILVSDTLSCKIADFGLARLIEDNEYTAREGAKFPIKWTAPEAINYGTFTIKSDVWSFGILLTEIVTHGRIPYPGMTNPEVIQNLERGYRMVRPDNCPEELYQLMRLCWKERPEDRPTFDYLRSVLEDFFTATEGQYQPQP
Chain of Kappa-type opioid receptor (P41145 whole entry): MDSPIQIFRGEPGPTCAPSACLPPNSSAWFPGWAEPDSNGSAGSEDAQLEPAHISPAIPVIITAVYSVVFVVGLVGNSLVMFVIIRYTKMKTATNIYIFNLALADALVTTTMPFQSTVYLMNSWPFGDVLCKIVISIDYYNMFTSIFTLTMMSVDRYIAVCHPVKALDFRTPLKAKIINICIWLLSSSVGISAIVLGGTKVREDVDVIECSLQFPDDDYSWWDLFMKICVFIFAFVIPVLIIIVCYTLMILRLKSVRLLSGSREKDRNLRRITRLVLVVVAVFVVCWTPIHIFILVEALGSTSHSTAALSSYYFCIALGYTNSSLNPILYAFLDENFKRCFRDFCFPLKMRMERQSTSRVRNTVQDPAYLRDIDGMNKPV
Chain of 5-hydroxytryptamine receptor 4 (O70528 whole entry): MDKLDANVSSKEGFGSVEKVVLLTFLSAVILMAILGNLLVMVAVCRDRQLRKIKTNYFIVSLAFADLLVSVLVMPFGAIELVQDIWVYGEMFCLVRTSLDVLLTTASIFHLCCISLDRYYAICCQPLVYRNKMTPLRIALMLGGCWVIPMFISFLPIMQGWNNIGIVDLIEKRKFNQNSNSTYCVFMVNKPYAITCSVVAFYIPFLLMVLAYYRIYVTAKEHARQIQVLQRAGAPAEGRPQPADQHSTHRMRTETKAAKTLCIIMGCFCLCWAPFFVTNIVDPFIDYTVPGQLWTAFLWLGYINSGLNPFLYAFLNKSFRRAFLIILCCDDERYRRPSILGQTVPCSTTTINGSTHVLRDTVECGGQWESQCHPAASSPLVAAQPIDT

O=C(O)Cc1ccc(-c2ccccc2)cc1 [FELBINAC]
Not Active: [1] | [2] | [3] | [4] | [5]

O=C(O)c1cccnc1 [NIACIN]
Not Active: [1] | [2] | [3] | [4] | [5]

C[C@H](C(=O)O)c1cccc(C(=O)c2ccccc2)c1 [DEXKETOPROFEN]
Not Active: [1] | [2] | [3] | [4] | [5]

CC[C@H]1OC(=O)[C@H](C)[C@@H](O[C@H]2C[C@@](C)(OC)[C@@H](O)[C@H](C)O2)[C@H](C)[C@@H](O[C@@H]2O[C@H](C)C[C@H](N(C)C)[C@H]2O)[C@](C)(OC)C[C@@H](C)C(=O)[C@H](C)[C@@H](O)[C@]1(C)O [CLARITHROMYCIN]
Not Active: [1] | [2] | [3] | [4] | [5]
